Measured values from US20240254087A1, “SELECTIVE, PARTIAL, AND ARRESTIN-BIASED 5-HT2A AGONISTS WITH UTILITY IN VARIOUS DISORDERS” (Saint Joseph's University, priority 2021, published 2024).
Entries after “also recorded” stand apart in the source; their conditions may differ. Where two headings read alike, the source gives them in different places.

Tests used:
5-HT5a = 5-HT5a (Homo sapiens, UniProt P47898); assay: Competitive radioligand binding (NIMH PDSP)
5-HT7 = 5-HT7 (Homo sapiens, UniProt P34969); assay: Competitive radioligand binding (NIMH PDSP)
Sequence of 5-HT7 (P34969 whole entry, species assumed): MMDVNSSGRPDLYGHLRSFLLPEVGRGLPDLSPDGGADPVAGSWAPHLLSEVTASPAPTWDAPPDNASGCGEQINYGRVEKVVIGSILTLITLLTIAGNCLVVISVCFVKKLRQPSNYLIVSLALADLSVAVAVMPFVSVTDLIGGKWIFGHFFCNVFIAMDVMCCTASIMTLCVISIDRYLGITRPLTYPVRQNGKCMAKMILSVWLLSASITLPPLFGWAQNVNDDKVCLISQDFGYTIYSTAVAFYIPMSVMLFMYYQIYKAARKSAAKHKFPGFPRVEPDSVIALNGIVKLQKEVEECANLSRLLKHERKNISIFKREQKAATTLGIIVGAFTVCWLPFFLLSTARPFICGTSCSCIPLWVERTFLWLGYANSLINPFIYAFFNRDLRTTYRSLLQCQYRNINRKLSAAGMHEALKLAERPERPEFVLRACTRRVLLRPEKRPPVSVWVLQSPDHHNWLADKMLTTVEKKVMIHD

5-HT6 = 5-HT6 (Homo sapiens, UniProt P50406); assay: Competitive radioligand binding (NIMH PDSP)
Sequence of 5-HT6 (P50406 whole entry, species assumed): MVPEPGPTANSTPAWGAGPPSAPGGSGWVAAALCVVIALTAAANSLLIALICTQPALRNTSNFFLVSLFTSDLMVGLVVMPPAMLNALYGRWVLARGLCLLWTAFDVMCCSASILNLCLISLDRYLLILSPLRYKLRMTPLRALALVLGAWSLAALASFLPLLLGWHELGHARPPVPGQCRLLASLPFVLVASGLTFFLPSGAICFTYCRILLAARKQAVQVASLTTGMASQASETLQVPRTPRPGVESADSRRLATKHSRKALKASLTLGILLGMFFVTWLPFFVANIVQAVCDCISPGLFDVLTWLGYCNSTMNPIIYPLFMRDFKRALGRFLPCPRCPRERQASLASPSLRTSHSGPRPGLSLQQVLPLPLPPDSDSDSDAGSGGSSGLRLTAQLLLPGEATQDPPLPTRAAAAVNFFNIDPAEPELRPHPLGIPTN

male C57BL/6J mice = assay: Head-twitch response (HTR) in mice; assay type: in vivo, mouse; settings: for ED50: Mus musculus
Procedure, shortened: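 Head twitches in male C57BL/6J mice (6-8 weeks) carrying head-mounted magnets were detected with a magnetometer coil around a 12-cm glass cylinder during the dark phase. Coil signal was low-pass filtered at 2 kHz and digitized at 20 kHz. Counts were analyzed by one-way ANOVA with Dunnett's post hoc test.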

5-HT2A = 5-HT2A (Homo sapiens, UniProt P28223); assay: cell-based; parameters: expressed in transfected cells; host or cells: HEK293T, transient; settings: read-out: 5-HT2A Gq Emax (% 5-HT), BRET, mean ± SEM
Sequence of 5-HT2A (P28223 whole entry): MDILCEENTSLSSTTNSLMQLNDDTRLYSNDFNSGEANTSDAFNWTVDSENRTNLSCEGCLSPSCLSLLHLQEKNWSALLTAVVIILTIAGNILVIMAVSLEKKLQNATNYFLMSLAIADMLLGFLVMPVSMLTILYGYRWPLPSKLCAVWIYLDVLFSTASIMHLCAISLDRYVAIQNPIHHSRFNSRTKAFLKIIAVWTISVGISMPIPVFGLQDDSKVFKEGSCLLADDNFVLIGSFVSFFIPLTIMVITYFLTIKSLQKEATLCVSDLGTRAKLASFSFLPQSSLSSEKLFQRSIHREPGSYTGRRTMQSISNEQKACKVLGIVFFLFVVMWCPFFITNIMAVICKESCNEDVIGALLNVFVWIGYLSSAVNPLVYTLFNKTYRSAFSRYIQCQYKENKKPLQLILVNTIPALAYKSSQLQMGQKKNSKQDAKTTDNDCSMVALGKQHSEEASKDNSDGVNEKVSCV

5-HT2B = 5-HT2B (Homo sapiens, UniProt P41595); assay: BRET Gq dissociation, 5-HT2B; assay type: cell-based; parameters: expressed in transfected cells; host or cells: HEK293T, transient; settings: for Emax: read-out: 5-HT2B Gq Dissociation (BRET) EMAX ± SEM (%5-HT)
Sequence of 5-HT2B (P41595 whole entry): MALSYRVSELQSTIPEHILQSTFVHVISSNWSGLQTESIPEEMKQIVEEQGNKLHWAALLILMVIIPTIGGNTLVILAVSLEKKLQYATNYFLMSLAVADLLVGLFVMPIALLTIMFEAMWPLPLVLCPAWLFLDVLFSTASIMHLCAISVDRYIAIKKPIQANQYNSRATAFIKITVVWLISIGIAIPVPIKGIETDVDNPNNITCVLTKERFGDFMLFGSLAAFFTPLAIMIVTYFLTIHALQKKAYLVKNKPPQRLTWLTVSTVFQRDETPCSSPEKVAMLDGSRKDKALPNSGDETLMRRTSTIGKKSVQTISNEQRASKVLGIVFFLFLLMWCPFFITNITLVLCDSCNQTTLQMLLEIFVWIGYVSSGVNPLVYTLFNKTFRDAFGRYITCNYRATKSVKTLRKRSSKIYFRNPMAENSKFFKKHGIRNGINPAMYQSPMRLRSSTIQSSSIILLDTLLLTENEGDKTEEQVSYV

5-HT2C = molecular target: T1, 5-HT2C (Homo sapiens, UniProt P28335); assay: BRET Gq dissociation, 5-HT2C; assay type: cell-based; parameters: expressed in transfected cells; host or cells: HEK293T, transient; settings: for Emax: read-out: 5-HT2C Gq Dissociation (BRET) EMAX ± SEM (%5-HT)
T1 sequence (P28335 33-458): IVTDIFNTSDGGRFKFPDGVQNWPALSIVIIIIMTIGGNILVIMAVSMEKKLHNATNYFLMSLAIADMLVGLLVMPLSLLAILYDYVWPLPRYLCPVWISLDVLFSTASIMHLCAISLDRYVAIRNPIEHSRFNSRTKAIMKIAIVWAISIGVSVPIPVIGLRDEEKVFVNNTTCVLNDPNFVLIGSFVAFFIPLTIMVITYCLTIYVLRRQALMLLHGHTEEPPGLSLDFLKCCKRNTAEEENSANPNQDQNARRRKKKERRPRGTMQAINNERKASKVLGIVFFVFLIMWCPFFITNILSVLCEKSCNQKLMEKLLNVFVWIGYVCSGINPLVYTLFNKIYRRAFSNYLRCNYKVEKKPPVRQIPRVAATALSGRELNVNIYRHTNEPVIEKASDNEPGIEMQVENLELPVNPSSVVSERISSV

[1] = read-out: HTR ED50 mg/kg (95% CI), SC, except DOI and 25D-NBOMe IP
[2] = read-out: HTR ED50 μmol/kg (95% CI), SC, except DOI and 25D-NBOMe IP
[3] = SC, except DOI and 25D-NBOMe IP

Sequence of 5-HT5a (P47898 whole entry, species assumed): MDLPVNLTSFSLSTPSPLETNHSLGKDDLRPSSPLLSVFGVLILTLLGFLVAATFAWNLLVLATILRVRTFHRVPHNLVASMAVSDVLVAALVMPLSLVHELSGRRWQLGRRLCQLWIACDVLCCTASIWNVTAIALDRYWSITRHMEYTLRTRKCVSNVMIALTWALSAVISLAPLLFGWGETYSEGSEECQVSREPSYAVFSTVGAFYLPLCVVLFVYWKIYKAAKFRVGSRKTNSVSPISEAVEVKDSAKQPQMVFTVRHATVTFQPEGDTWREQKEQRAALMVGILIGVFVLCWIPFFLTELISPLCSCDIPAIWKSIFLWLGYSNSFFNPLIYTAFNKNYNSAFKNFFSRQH

| SMILES | Ki (5-HT5a) [µM] | Ki (5-HT7) [µM] | Ki (5-HT6) [nM] | Induction of the HTR in mice (in words) (male C57BL/6J mice) | Max HTR response during a 30-min assessment (maximum counts ÷ baseline response) (male C57BL/6J mice) | ED50 (male C57BL/6J mice; [1]) [mg/kg] | Induction of the HTR in mice (in words) (male C57BL/6J mice; listed as 25N—NB-3-HO (21)) | Emax (5-HT2A) [%] | ED50 (male C57BL/6J mice; [2]) [µmol/kg] | EC50 (5-HT2B) [nM] | Emax (5-HT2B) [%] | EC50 (5-HT2C) [nM] | Emax (5-HT2C) [%] | 5-HT2B Gq Dissociation (BRET) EMAX ± SEM (%5-HT) (5-HT2B) | 5-HT2B Gq Dissociation (BRET) pEC50 ± SEM (5-HT2B) | 5-HT5a pKi affinity (Ki ± SEM) (5-HT5a) | 5-HT7 pKi affinity (Ki ± SEM) (5-HT7) | 5-HT6 pKi affinity (Ki ± SEM) (5-HT6) | HTR ED50 μmol/kg (95% CI) (male C57BL/6J mice; [3]) | HTR ED50 mg/kg (95% CI) (male C57BL/6J mice; [3]) |
| --- | --- | --- | --- | --- | --- | --- | --- | --- | --- | --- | --- | --- | --- | --- | --- | --- | --- | --- | --- | --- |
| COc1cc([N+](=O)[O-])c(OC)cc1CCNCc1cccc(O)c1 [25N-NB-3-OH (21), 3-({[2-(2,5-dimethoxy-4-nitrophenyl)ethyl]amino}methyl)phenol] | > 10 | > 10 | 69.2 | inactive in the HTR | 1.7-fold increase | > 30 | do not induce the HTR | 49.8 ± 4.3 | – | – | – | – | – | – | – | – | – | – | – | – |
| COc1cc([N+](=O)[O-])c(OC)cc1CCNCc1ccccc1C(F)(F)F [25N-NBCF3 (14), [2-(2,5-dimethoxy-4-nitrophenyl)ethyl]({[2-(trifluoromethyl)phenyl]methyl}) amine] | > 10 | > 10 | 407 | lacked a HTR; also recorded: failed to induce a HTR; also recorded: do not induce the HTR | 2.6-fold increase | > 30 | – | – | – | – | – | – | – | – | – | – | – | – | – | – |
| COc1cc([N+](=O)[O-])c(OC)cc1CCNCc1ccccc1I [25N-NBI (10)] | > 10 | > 10 | 380 | – | 3.0-fold increase | 4.94 | – | – | 10.3 | 29.5 | 21.8 ± 2.3 | 87.1 | 71.5 ± 2.2 | – | – | – | – | – | – | – |
| COc1cc([N+](=O)[O-])c(OC)cc1CCNCc1ccccc1[N+](=O)[O-] [25N-NBNO2 (15), [2-(2,5-dimethoxy-4-nitrophenyl)ethyl][(2-nitrophenyl)methyl]amine] | > 10 | > 10 | > 10000 | lacked a HTR; also recorded: failed to induce a HTR; also recorded: do not induce the HTR | 1.9-fold increase | > 100 | – | – | – | – | – | 148 | 61.3 ± 4.4 | No activity | No activity | – | – | – | – | – |
| COc1cc([N+](=O)[O-])c(OC)cc1CCNCc1ccccc1OC(F)(F)F [25N-NBOCF3 (12)] | – | – | – | do not induce the HTR | 3.9-fold increase | – | – | – | – | – | – | – | – | – | – | 5.80 | <5 | 6.12 | 13.5 (6.81-26.8) μmol/kg | 5.90 (2.97-11.7) mg/kg |
| COc1cc([N+](=O)[O-])c(OC)cc1CCNCc1ccccc1OC [25N-NBOMe (4), [2-(2,5-dimethoxy-4-nitrophenyl)ethyl] [(2-methoxyphenyl)methyl]amine] | > 10 | > 10 | 55 | – | 15.6-fold increase | 0.11 | – | 98 | 0.29 | 3.89 | 61.8 ± 2.3 | 0.302 | 112 ± 2.8 | – | – | – | – | – | – | – |
| COc1cc([N+](=O)[O-])c(OC)cc1CCNCc1ccccc1-c1ccccc1 [25N-NBPh (17), ({[1,1′-biphenyl]-2-yl}methyl)[2-(2,5-dimethoxy-4-nitrophenyl)ethyl]amine] | – | – | – | lacked a HTR | 2.1-fold increase | > 100 | – | 23.2 ± 1.5 | – | 316 | 47 ± 5.5 | 646 | 96.9 ± 10 | – | – | – | – | – | – | – |
